In patent publication US10385019B2, “Inhibitors of EGFR and methods of use thereof” (Dana-Farber Cancer Institute, Inc., priority 2015, dated 2019):

Target: EGFR T790M/L858R Ba/F3 cell line (Homo sapiens, UniProt P00533, T790M/L858R, cells depend on it)
Assay: Ba/F3 cell proliferation model
Type: cell-based, murine
Conditions: combined with cetuximab (% cetuximab, 1.0 μM drug concentration with 1.0 μg/mL cetuximab)
Description: The selectivity between wild-type EGFR and EGFR containing one or more mutations as described herein can also be measured using cellular proliferation assays where cell proliferation is dependent on kinase activity. For example, murine Ba/F3 cells transfected with a suitable version of wild-type EGFR (such as VIII; containing a WT EGFR kinase domain), or Ba/F3 cells transfected with L858R/T790M, Del/T790M/L718Q, L858R/T790M/L718Q, L858R/T790M/C797S, Del/T790M/C797S, L858R/T790M/I941R, or Exon 19 deletion/T790M can be used.
Cell lines are plated in media. The compounds of the present disclosure are then serially diluted and transferred to the cells. Cell viability is measured via a luminescent readout. Data is analyzed by non-linear regression curve-fitting. […]
The EGFR mutant L858R, Del E746_A750, L858R/T790M, DelE746_A750/T790M, L858R/T790M/C797S and Del/T790M/C797S Ba/F3 cells have been previously described (Zhou, W., Ercan, D., Chen, L., Yun, C. H., Li, D., Capelletti, M., Cortot, A. B., Chirieac, L., Iacob, R. E., Padera, R., et al. “Novel mutant-selective EGFR kinase inhibitors against EGFR T790M,” Nature 462, (2009), 1070-1074). All cell lines were maintained in RPMI 1640 (Cellgro; Mediatech Inc., Herndon, Calif.) supplemented with 10% FBS 100 units/mL penicillin, 100 units/mL streptomycin, and 2 mM glutamine. L858R cells were maintained in ACL-4 media (Invitrogen, Carlsbad, Calif.) supplemented with 5% FBS, 100 units/mL penicillin, 100 units/mL streptomycin, and 2 mM glutamine. The EGFR I941R mutation was introduced via site directed mutagenesis using the Quick Change Site-Directed Mutagenesis kit (Stratagene; La Jolla, Calif.) according to the manufacturer's instructions. All constructs were confirmed by DNA sequencing. The constructs were shuttled into the retroviral vector JP 1540 using the BD Creator™ System (BD Biosciences). Ba/F3 cells were infected with retrovirus and according to standard protocols, as described previously (Zhou et al, Nature 2009). Stable clones were obtained by selection in puromycin (2 μg/ml).
Growth and inhibition of growth was assessed by MTS assay and was performed according to previously established methods (Zhou et al., Nature 2009). The MTS assay is a colorimetric method for determining the number of viable cells that is based on the bioreduction of MTS by cells to a formazan product that is soluble in cell culture medium and can be detected spectrophotometrically. Ba/F3 cells of different EGFR genotypes were exposed to treatment for 72 hours and the number of cells used per experiment determined empirically and has been previously established (Zhou et al., Nature 2009). All experimental points were set up in six wells and all experiments were repeated at least three times. […] The curves were fitted using a non-linear regression model with a sigmoidal dose response.
Inhibition data of an EGFR T790M/L858R Ba/F3 cell line.

Sequence of EGFR T790M/L858R Ba/F3 cell line (P00533 whole entry T790M/L858R): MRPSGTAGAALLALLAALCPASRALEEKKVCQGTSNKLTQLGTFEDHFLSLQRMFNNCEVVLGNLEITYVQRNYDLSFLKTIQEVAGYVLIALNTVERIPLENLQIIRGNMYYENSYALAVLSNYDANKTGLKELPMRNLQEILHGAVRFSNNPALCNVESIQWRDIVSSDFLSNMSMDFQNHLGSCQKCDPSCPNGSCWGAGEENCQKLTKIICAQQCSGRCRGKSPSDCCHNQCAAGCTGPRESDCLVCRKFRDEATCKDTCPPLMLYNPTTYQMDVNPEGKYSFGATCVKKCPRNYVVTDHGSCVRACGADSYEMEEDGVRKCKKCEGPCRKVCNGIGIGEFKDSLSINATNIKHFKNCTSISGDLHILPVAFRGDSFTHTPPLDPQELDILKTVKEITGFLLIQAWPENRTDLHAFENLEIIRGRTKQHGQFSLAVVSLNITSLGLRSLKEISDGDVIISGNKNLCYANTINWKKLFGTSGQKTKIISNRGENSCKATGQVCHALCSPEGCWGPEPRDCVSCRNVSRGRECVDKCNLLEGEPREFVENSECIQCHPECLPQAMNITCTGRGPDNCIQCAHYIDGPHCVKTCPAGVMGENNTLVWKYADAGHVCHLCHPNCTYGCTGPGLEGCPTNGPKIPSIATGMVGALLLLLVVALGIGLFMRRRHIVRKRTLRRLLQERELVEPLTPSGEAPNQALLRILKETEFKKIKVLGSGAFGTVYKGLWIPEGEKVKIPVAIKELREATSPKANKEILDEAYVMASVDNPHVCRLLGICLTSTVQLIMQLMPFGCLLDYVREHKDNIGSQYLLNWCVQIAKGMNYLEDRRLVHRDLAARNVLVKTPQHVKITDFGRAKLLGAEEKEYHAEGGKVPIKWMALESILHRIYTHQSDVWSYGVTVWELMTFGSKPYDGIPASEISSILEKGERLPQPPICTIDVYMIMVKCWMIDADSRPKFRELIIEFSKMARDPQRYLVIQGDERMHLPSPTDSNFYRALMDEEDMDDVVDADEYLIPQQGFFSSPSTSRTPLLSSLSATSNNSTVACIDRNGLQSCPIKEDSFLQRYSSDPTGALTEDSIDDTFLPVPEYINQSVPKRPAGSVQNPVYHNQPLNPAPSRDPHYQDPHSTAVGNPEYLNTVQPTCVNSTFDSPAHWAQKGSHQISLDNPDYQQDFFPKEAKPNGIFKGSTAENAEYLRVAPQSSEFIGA

SMILES	Activity (% inhibition)
CCOC(=O)c1csc(NC(=O)[C@H](Cc2ccccc2)N2Cc3ccccc3C2=O)n1 [Compound I-48, ethyl (S)-2-(2-(1-oxoisoindolin-2-yl)-3-phenylpropanamido) thiazole-4-carboxylate]	A (a % inhibition of about 75%)
CN(C)CCCNC(=O)c1csc(NC(=O)[C@@H](c2ccccc2)N2Cc3ccccc3C2=O)n1 [Compound I-11, (R)-N-(3-(dimethylamino)propyl)-2-(2-(1-oxoisoindolin-2-yl)-2-phenylacetamido)thiazole-4-carboxamide]	A (a % inhibition of about 75%)
Cc1csc(NC(=O)[C@@H](c2ccccc2)N2Cc3ccc(-c4ccc5[nH]ccc5c4)cc3C2=O)n1 [Compound I-131, (R)-2-(6-(1H-indol-5-yl)-1-oxoisoindolin-2-yl)-N-(4-methylthiazol-2-yl)-2-phenylacetamide]	A (a % inhibition of about 75%)
O=C(Nc1ncc[nH]1)[C@H](c1ccccc1)N1Cc2ccccc2C1=O [Compound I-35, (S)-N-(1H-imidazol-2-yl)-2-(1-oxoisoindolin-2-yl)-2-phenylacetamide]	A (a % inhibition of about 75%)
O=C(Nc1nc2cccnc2s1)[C@@H](c1ccccc1)N1Cc2ccccc2C1=O [Compound I-32, (R)-2-(1-oxoisoindolin-2-yl)-2-phenyl-N-(thiazolo [5,4-b]pyridin-2-yl)acetamide]	A (a % inhibition of about 75%)
CN(C)CCCCNC(=O)c1cccc(-c2ccc3c(c2)C(=O)N([C@@H](C(=O)Nc2nccs2)c2ccccc2)C3)c1 [Compound I-89, (R)-N-(4-(dimethylamino)butyl)-(3-oxo-2-(2-oxo-1-phenyl-2-(thiazol-2-ylamino)ethyl)isoindolin-5-yl)benzamide]	B (a % inhibition of between about 50% to about 75%)
O=C(O)c1ccc(-c2ccc3c(c2)C(=O)N([C@@H](C(=O)Nc2nccs2)c2ccccc2)C3)cc1 [Compound I-78, (R)-4-(3-oxo-2-(2-oxo-1-phenyl-2-(thiazol-2-ylamino)ethyl)isoindolin-5-yl)benzoic acid]	A (a % inhibition of about 75%)
O=C(Nc1nccs1)[C@@H](c1ccccc1)N1Cc2cc(-c3ccccc3F)ccc2C1=O [Compound I-101, (R)-2-(5-(2-fluorophenyl)-1-oxoisoindolin-2-yl)-2-phenyl-N-(thiazol-2-yl)acetamide]	B (a % inhibition of between about 50% to about 75%)
O=C(Nc1nc(CCCN2CCOCC2)cs1)[C@@H](c1ccccc1)N1Cc2ccccc2C1=O [Compound I-43, (R)-N-(4-(3-morpholinopropyl)thiazol-2-yl)-2-(1-oxoisoindolin-2-yl)-2-phenylacetamide]	A (a % inhibition of about 75%)
O=C(Nc1ncc[nH]1)[C@@H](c1ccccc1)N1Cc2ccccc2C1=O [Compound I-34, (R)-N-(1H-imidazol-2-yl)-2-(1-oxoisoindolin-2-yl)-2-phenylacetamide]	A (a % inhibition of about 75%)
O=C(Nc1nccs1)[C@@H](c1ccccc1)N1Cc2ccc(-c3ccc4cc[nH]c4c3)cc2C1=O [Compound I-67, (R)-2-(6-(1H-indol-6-yl)-1-oxoisoindolin-2-yl)-2-phenyl-N-(thiazol-2-yl)acetamide]	C (a % inhibition of between about 25% to about 50%)
O=C(Nc1nccs1)[C@@H](c1cccc([N+](=O)[O-])c1)N1Cc2ccccc2C1=O [Compound I-18, (R)-2-(3-nitrophenyl)-2-(1-oxoisoindolin-2-yl)-N-(thiazol-2-yl)acetamide]	A (a % inhibition of about 75%)
O=C(Nc1nc(C(F)(F)F)cs1)[C@@H](c1ccccc1)N1Cc2ccccc2C1=O [Compound I-6, (R)-2-(1-oxoisoindolin-2-yl)-2-phenyl-N-(4-(trifluoromethyl)thiazol-2-yl)acetamide]	A (a % inhibition of about 75%)
